Assay [1] addresses vasopressin V1 receptor (rat liver plasma membranes) (Rattus norvegicus, UniProt P30560). Briefly: Binding Assay to Rat Hepatic V1 Receptors. The note with it: for IC50: rat hepatic V1.
Assay [2] has as its target T1, rat kidney medullary V2 receptors (Rattus norvegicus, UniProt Q00788).
T1 construct: Medullary tissues from rat kidneys are dissected out; from tissue; host or cells: rat kidney medulla membranes
Briefly: Binding Assay to Rat Kidney Medullary V2 Receptors. Conditions: for IC50: rat kidney medullary V2; for inhibition at 10 µM: rat kidney, read-out: V2, % at concentration in brackets. An outline of the steps:
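Competition binding: [3H]AVP at 0.8 nM, test compounds from 50% DMSO, and membranes from rat kidney medulla, left 120 min on the bench. Filtration then liquid scintillation counting measured bound ligand; 1.0 μM unlabeled ligand set non-specific binding.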

The values that follow come from US5834461A, “Tricyclic benzazepine vasopressin antagonists” (American Cyanamid Company, priority 1997, dated 1998).

Sequence of vasopressin V1 receptor (rat liver plasma membranes) (P30560 whole entry): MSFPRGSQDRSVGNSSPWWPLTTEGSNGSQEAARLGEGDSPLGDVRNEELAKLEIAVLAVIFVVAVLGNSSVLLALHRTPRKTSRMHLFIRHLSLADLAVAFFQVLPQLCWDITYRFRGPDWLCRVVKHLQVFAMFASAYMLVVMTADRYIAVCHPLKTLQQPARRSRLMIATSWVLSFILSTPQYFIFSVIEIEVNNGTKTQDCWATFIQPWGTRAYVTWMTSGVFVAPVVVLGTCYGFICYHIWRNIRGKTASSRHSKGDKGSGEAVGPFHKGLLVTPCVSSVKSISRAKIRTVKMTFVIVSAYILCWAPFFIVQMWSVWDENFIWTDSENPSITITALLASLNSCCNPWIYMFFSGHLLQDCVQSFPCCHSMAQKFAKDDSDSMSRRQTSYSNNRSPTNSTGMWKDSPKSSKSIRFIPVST
T1 sequence (Q00788 whole entry): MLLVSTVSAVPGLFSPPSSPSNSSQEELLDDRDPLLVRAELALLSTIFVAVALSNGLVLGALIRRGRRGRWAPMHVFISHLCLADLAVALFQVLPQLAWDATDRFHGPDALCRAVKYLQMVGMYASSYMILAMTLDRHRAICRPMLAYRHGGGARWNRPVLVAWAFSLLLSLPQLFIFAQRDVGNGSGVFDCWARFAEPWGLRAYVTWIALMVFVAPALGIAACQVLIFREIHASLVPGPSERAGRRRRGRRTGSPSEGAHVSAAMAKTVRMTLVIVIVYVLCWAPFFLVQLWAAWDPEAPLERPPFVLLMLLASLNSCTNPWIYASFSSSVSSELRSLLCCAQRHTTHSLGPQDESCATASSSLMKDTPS

Take `O=C(Nc1ccc(C(=O)N2Cc3ccccc3Cc3ccccc32)cc1)c1cc(Cl)cc(Cl)c1` [Example 251, N-(4-[(6,11-Dihydro-5H-dibenz[b,e]azepin-5-yl)-carbonyl]phenyl]-3,5-dichlorobenzamide]: the IC50 (in general, the point on the concentration scale where inhibition reaches its midpoint) in assay [1] was determined as 1.5 µM; in assay [2] it was 0.14 µM. The corresponding values for `Cc1ncc2c(n1)-c1ccccc1N(C(=O)c1ccc(NC(=O)c3ccccc3C)cc1)CC2` [Example 416, N-[4-[(6,7-Dihydro-2-methyl-5H-pyrimido[5,4-d][1]-benzazepin-7-yl)carbonyl]phenyl]-2-methylbenzamide] are 34.5 µM and 1.1 µM. Regarding `Cc1ccccc1C(=O)Nc1ccc(C(=O)N2Cc3ccccc3-c3ccccc32)cc1` [Example 5, 2-Methyl-N-[4-[(5(6H)-phenanthridinyl)carbonyl]phenyl]benzamide], the IC50 was 0.056 µM in assay [1] and 0.029 µM in assay [2]. Consider `Cc1ccc(F)cc1C(=O)Nc1ccc(C(=O)N2CCc3c[nH]nc3-c3ccccc32)cc1` [Example 584, N-[4-[(4.5-Dihydropyrazolo[4,3-d][1]benzazepin-6(2H)-yl)carbonyl]phenyl]-5-fluoro-2-methylbenzamide], for which the concentration for half-maximal inhibition (IC50) in assay [1] was 0.039 µM; in assay [2], 0.011 µM. The corresponding values for `Cc1ccccc1C(=O)Nc1ccc(C(=O)N2Cc3ccccc3Cc3ccccc32)c(Cl)c1` [Example 260, N-[4-[(6,11-Dihydro-5H-dibenz[b,e]azepin-5-yl)-carbonyl]-3-chlorophenyl]-2-methylbenzamide] are 0.12 µM and 0.065 µM. The corresponding values for `O=C(Nc1ccc(C(=O)N2Cc3ccccc3Cc3ccccc32)cc1)c1cccc(Cl)c1Cl` [Example 253, N-[4-[(6,11-Dihydro-5H-dibenz[b,e]azepin-5-yl)-carbonyl]phenyl]-2,3-dichlorobenzamide] are 0.31 µM and 0.19 µM. As for `Cc1ccccc1C(=O)Nc1c(C)cc(C(=O)N2Cc3ccccc3Cc3ccccc32)cc1C` [Example 258, N-[4-[(6,11-Dihydro-5H-dibenz[b,e]azepin-5-yl)-carbonyl]-2,6-dimethylphenyl]-2-methylbenzamide], the inhibition at 10 µM was 75% in assay [1] (2 h, 10 μM, rat hepatic, read-out: V1, % at concentration in brackets) and 87% in assay [2]. With `Cc1ccccc1C(=O)Nc1ccc(C(=O)N2CCc3cn(C)nc3-c3ccccc32)cc1` [Example 379, N-[4-[(4,5-Dihydro-2-methylpyrazolo[4,3-d][1]-benzazepin-6(2H)-yl)carbonyl]phenyl]-2-methylbenzamide], the half-maximal inhibitory concentration (IC50) in assay [1] amounted to 0.25 µM; in assay [2], 0.053 µM. As for `Cc1ccccc1C(=O)N(CN(C)C)c1ccc(C(=O)N2Cc3ccccc3Cc3ccccc32)cc1` [Example 267, N-[4-[(6,11-Dihydro-5H-dibenz[b,e]azepin-5-yl)-carbonyl]phenyl]-N-[(dimethylamino)methyl]-2-methylbenzamide], the IC50 in assay [1] turned out to be 0.026 µM; in assay [2], 0.082 µM. The corresponding values for `Cc1ccccc1C(=O)Nc1ccc(C(=O)N2Cc3ccccc3Cc3ccccc32)cc1` [Example 2, N-[4-[(6,11-Dihydro-5H-dibenz[b,e]azepin-5-yl)carbonyl]phenyl]-2-methylbenzamide] are 0.15 µM and 0.068 µM. As for `O=C(Nc1ccc(C(=O)N2Cc3ccccc3Cc3ccccc32)cc1)C1CC=CCC1` (centres unmarked) [Example 255, N-[4-[(6,11-Dihydro-5H-dibenz[b,e]azepin-5-yl)-carbonyl]phenyl]-3-cyclohexene-1-carboxamide], the IC50 in assay [1] turned out to be 0.027 µM; in assay [2], 0.039 µM.

`CC(C)COc1ccc([N+](=O)[O-])cc1C(=O)Nc1ccc(C(=O)N2Cc3ccccc3Cc3ccccc32)cc1` [Example 453]: the inhibition at 10 µM in assay [2] stood at 26%.

For `Cc1ccc(F)cc1C(=O)Nc1ccc(C(=O)N2CCc3c[nH]nc3-c3ccccc32)c(Cl)c1` [Example 581], the IC50 stood at 0.74 µM in assay [1] and 0.0113 µM in assay [2]. For `Cc1cc(C(=O)N2Cc3ccccc3Cc3ccccc32)cc(C)c1NC(=O)c1ccc(Cl)cc1Cl` [Example 259, N-[4-[(6,11-Dihydro-5H-dibenz[b,e]azepin-5-yl)-carbonyl]-2,6-dimethylphenyl]-2 4-dichlorobenzamide], in assay [1], the IC50 turned out to be 4 µM. The inhibition at 10 µM in assay [2] is 13%. `O=C(Nc1ccc(C(=O)N2Cc3ccccc3Sc3ccccc32)cc1)c1ccccc1Cl` [Example 448, N-[4-[(Dibenz[b,f][1,4]thiazepin-10(11H)yl)-carbonyl]phenyl]-2-chlorobenzamide]: the 50% inhibitory concentration (IC50) in assay [1] was found to be 0.073 µM; in assay [2], 0.19 µM.
